Target: T1, human parathyroid cell Ca^2+ receptor (hPCaR) (Homo sapiens, UniProt P41180)
T1 construct: expressed in transfected cells
T1 sequence (P41180 20-1078): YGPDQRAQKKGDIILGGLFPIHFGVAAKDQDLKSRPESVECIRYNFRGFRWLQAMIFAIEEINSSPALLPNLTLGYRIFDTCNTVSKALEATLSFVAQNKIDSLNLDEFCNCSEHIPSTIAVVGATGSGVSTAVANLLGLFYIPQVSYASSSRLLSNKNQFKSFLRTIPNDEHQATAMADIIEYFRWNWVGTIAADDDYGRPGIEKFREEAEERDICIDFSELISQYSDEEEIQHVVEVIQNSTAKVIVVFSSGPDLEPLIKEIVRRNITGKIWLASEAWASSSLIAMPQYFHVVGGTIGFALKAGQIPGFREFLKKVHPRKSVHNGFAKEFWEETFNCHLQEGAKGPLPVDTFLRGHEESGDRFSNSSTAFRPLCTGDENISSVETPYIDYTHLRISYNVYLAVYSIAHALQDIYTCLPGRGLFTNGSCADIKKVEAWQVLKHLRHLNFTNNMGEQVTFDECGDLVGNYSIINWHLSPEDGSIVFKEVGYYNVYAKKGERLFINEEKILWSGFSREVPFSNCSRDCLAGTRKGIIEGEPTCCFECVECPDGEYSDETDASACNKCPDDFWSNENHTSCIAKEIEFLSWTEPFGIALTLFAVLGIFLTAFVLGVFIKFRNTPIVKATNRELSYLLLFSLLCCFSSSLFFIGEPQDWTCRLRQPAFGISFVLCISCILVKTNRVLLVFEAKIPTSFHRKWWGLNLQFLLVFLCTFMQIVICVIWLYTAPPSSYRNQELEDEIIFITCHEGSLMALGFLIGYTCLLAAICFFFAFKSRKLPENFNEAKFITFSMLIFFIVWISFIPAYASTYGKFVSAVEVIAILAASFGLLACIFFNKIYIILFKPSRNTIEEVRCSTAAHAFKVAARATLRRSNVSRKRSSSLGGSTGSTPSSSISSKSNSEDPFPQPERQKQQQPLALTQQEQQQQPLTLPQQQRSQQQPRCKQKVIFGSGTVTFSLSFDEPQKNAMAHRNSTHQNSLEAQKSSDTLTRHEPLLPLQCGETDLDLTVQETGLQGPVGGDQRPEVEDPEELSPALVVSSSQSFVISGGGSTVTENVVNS
Experiment: [Ca2+]i measurement with fluo-3 in HEK 293 4.0-7 cells stably transfected with hPCaR
Assay type: cell-based
Conditions: fluo-3 fluorescence (485/530 nm), effect on [Ca^2+]i
Outline: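 Cytosolic [Ca2+] was read as fluo-3 fluorescence (ex 485/em 530 nm) after compound addition to washed cells. Cells were hPCaR-transfected HEK 293 clone 7, dye-loaded 30 min at 37 °C with 2 μM fluo-3 acetoxymethyl ester in HEPES-buffered saline pH 7.45 containing 1 mM CaCl2 and 0.5% BSA.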

EC50, ≤ 10 µM:
COc1ccc(-c2cccc(CN[C@H](C)c3cccc(OC)c3)c2)cc1 [(1R)-N-((4′-(methyloxy)-1,1′-biphenyl-3-yl)methyl)-1-(3-(methyloxy)phenyl)ethanamine]
COc1ccc(-c2cccc(CN[C@H](C)c3ccc(OC)cc3)c2)cc1 [(1R)-N-((4′-(methyloxy)-1,1′-biphenyl-3-yl)methyl)-1-(4-(methyloxy)phenyl)ethanamine]
COc1ccc(CN[C@H](C)c2cccc3ccccc23)cc1-c1ccc(Cl)cc1 [(1R)-N-((4′-chloro-6-(methyloxy)-1,1′-biphenyl-3-yl)methyl)-1-(1-naphthalenyl)ethanamine]
COc1cccc([C@@H](C)NCc2ccc(OC)c(-c3ccc(Cl)cc3)c2)c1 [(1R)-N-((4′-chloro-6-(methyloxy)-1,1′-biphenyl-3-yl)methyl)-1-(3-(methyloxy)phenyl)ethanamine]
COc1ccc(CN[C@H](C)c2ccccc2)cc1-c1ccc(Cl)cc1 [(1R)-N-((4′-chloro-6-(methyloxy)-1,1′-biphenyl-3-yl)methyl)-1-phenylethanamine]
COc1cccc([C@@H](C)NCc2cccc(-c3ccc(F)cc3)c2)c1 [(1R)-N-((4′-fluoro-1,1′-biphenyl-3-yl)methyl)-1-(3-(methyloxy)phenyl)ethanamine]
Cc1ccc([C@@H](C)NCc2cccc(-c3ccc(F)cc3)c2)cc1 [(1R)-N-((4′-fluoro-1,1′-biphenyl-3-yl)methyl)-1-(4-methylphenyl)ethanamine]
C[C@@H](NCc1cccc(-c2ccc(F)cc2)c1)c1ccccc1 [(1R)-N-((4′-fluoro-1,1′-biphenyl-3-yl)methyl)-1-phenylethanamine]
COc1ccc(CN[C@H](C)c2cccc(F)c2)cc1-c1ccc(F)cc1 [(1R)-N-((4′-fluoro-6-(methyloxy)-1,1′-biphenyl-3-yl)methyl)-1-(3-fluorophenyl)ethanamine]
COc1ccc([C@@H](C)NCc2ccc(OC)c(-c3ccc(F)cc3)c2)cc1 [(1R)-N-((4′-fluoro-6-(methyloxy)-1,1′-biphenyl-3-yl)methyl)-1-(4-(methyloxy)phenyl)ethanamine]
COc1ccc(CN[C@H](C)c2ccc(C)cc2)cc1-c1ccc(F)cc1 [(1R)-N-((4′-fluoro-6-(methyloxy)-1,1′-biphenyl-3-yl)methyl)-1-(4-methylphenyl)ethanamine]
COCCOc1ccc(CN[C@H](C)c2cccc3ccccc23)cc1-c1ccc(C(F)(F)F)cc1 [(1R)-N-((6-((2-(methyloxy)ethyl)oxy)-4′-(trifluoromethyl)-1,1′-biphenyl-3-yl)methyl)-1-(1-naphthalenyl)ethanamine]
COCCOc1ccc(CN[C@H](C)c2cccc(OC)c2)cc1-c1ccc(C(F)(F)F)cc1 [(1R)-N-((6-((2-(methyloxy)ethyl)oxy)-4′-(trifluoromethyl)-1,1′-biphenyl-3-yl)methyl)-1-(3-(methyloxy)phenyl)ethanamine]
COCCOc1ccc(CN[C@H](C)c2ccccc2)cc1-c1ccc(C(F)(F)F)cc1 [(1R)-N-((6-((2-(methyloxy)ethyl)oxy)-4′-(trifluoromethyl)-1,1′-biphenyl-3-yl)methyl)-1-phenylethanamine]
CCOc1ccc(CN[C@H](C)c2ccccc2)cc1-c1ccc(OC)cc1 [(1R)-N-((6-(ethyloxy)-4′-(methyloxy)-1,1′-biphenyl-3-yl)methyl)-1-phenylethanamine]
COc1cccc([C@@H](C)NCc2ccc(OC)c(-c3ccccc3)c2)c1 [(1R)-N-((6-(methyloxy)-1,1′-biphenyl-3-yl)methyl)-1-(3-(methyloxy)phenyl)ethanamine]
COc1ccc([C@@H](C)NCc2ccc(OC)c(-c3ccccc3)c2)cc1 [(1R)-N-((6-(methyloxy)-1,1′-biphenyl-3-yl)methyl)-1-(4-(methyloxy)phenyl)ethanamine]
COc1ccc(CN[C@H](C)c2ccc(C)cc2)cc1-c1ccccc1 [(1R)-N-((6-(methyloxy)-1,1′-biphenyl-3-yl)methyl)-1-(4-methylphenyl)ethanamine]
COc1ccc(CN[C@H](C)c2cccc3ccccc23)cc1-c1cccc(OC(F)(F)F)c1 [(1R)-N-((6-(methyloxy)-3′-((trifluoromethyl)oxy)-1,1′-biphenyl-3-yl)methyl)-1-(1-naphthalenyl)ethanamine]
COc1ccc(CN[C@H](C)c2ccccc2)cc1-c1cccc(OC(F)(F)F)c1 [(1R)-N-((6-(methyloxy)-3′-((trifluoromethyl)oxy)-1,1′-biphenyl-3-yl)methyl)-1-phenylethanamine]
COc1ccc(CN[C@H](C)c2cccc3ccccc23)cc1-c1cccc(C(F)(F)F)c1 [(1R)-N-((6-(methyloxy)-3′-(trifluoromethyl)-1,1′-biphenyl-3-yl)methyl)-1-(1-naphthalenyl)ethanamine]
COc1ccc(CN[C@H](C)c2ccccc2)cc1-c1cccc(C(F)(F)F)c1 [(1R)-N-((6-(methyloxy)-3′-(trifluoromethyl)-1,1′-biphenyl-3-yl)methyl)-1-phenylethanamine]
COc1ccc(CN[C@H](C)c2cccc3ccccc23)cc1-c1ccc(OC(F)(F)F)cc1 [(1R)-N-((6-(methyloxy)-4′-((trifluoromethyl)oxy)-1,1′-biphenyl-3-yl)methyl)-1-(1-naphthalenyl)ethanamine]
COc1ccc(CN[C@H](C)c2ccccc2)cc1-c1ccc(OC(F)(F)F)cc1 [(1R)-N-((6-(methyloxy)-4′-((trifluoromethyl)oxy)-1,1′-biphenyl-3-yl)methyl)-1-phenylethanamine]
COc1ccc(CN[C@H](C)c2cccc3ccccc23)cc1-c1ccc(S(C)(=O)=O)cc1 [(1R)-N-((6-(methyloxy)-4′-(methylsulfonyl)-1,1′-biphenyl-3-yl)methyl)-1-(1-naphthalenyl)ethanamine]
COc1cccc([C@@H](C)NCc2ccc(OC)c(-c3ccc(S(C)(=O)=O)cc3)c2)c1 [(1R)-N-((6-(methyloxy)-4′-(methylsulfonyl)-1,1′-biphenyl-3-yl)methyl)-1-(3-(methyloxy)phenyl)ethanamine]
COc1ccc(CN[C@H](C)c2ccccc2)cc1-c1ccc(S(C)(=O)=O)cc1 [(1R)-N-((6-(methyloxy)-4′-(methylsulfonyl)-1,1′-biphenyl-3-yl)methyl)-1-phenylethanamine]
COc1ccc(CN[C@H](C)c2cccc3ccccc23)cc1-c1ccc(C(F)(F)F)cc1 [(1R)-N-((6-(methyloxy)-4′-(trifluoromethyl)-1,1′-biphenyl-3-yl)methyl)-1-(1-naphthalenyl)ethanamine]
COc1ccc(CN[C@H](C)c2ccccc2)cc1-c1ccc(C(F)(F)F)cc1 [(1R)-N-((6-(methyloxy)-4′-(trifluoromethyl)-1,1′-biphenyl-3-yl)methyl)-1-phenylethanamine]

Source: patent publication US6908935B2, “Calcium receptor modulating agents” (Amgen Inc., priority 2002, dated 2005)
